The target in experiment [1] is Histone deacetylase (HDAC1 and HDAC2) (Homo sapiens, UniProt Q13547+Q92769). As to the kind of experiment: Inhibition of HDAC1/HDAC2 in human HeLa cell extract incubated for 5 mins prior to substrate addition measured after 30 mins by microtitre plate reader analysis. Type of experiment: cell-based.
For experiment [2], the system named is K562. Description: Antiproliferative activity against human K562 cells after 48 hrs by MTT assay. The settings on record: K562, 48 h. The class given is functional, cell-based. Background: Tetrazolium dyes change colour on reduction, which living cells bring about.
Experiment [3] is described as follows: Antiproliferative activity against human PC3 cells after 48 hrs by MTT assay. The class given is functional, cell-based. As to conditions: PC-3, 48 h.
In experiment [4] the test system is MDA-MB-231. Description: Antiproliferative activity against human MDA-MB-231 cells after 48 hrs by MTT assay. The class given is functional, cell-based. The settings on record: MDA-MB-231, 48 h.

Bounds are passed on as bounds.

We go through 35 molecules from ChEMBL document CHEMBL3352623, “Improved antiproliferative activity of 1,3,4-thiadiazole-containing histone deacetylase (HDAC) inhibitors by introduction of the heteroaromatic surface recognition motif” (Bioorg Med Chem, 2014).

On to `O=C(CCCCCC(=O)Nc1nnc(-c2ccc([N+](=O)[O-])cc2)s1)NO`, for which, in experiment [1], the IC50 (in general, the concentration that inhibits the measured activity by half) came out at 0.709 µM. This lies in the sub-micromolar range. With `O=C(CCCCCCC(=O)Nc1nnc(-c2ccc(C(F)(F)F)cc2)s1)NO`, in experiment [1], the IC50 is greater than 5 µM. On to `O=C(CCCCCCC(=O)Nc1nnc(-c2cccnc2)s1)NO`, for which the IC50 in experiment [2] came to 4.36 µM; in experiment [3], 7.98 µM; in experiment [4] it was 1.87 µM; in experiment [1] it was 0.386 µM. Regarding `O=C(CCCCCC(=O)Nc1nnc(-c2ccc(I)cc2)s1)NO`, in experiment [1], the IC50 came to 0.875 µM. In experiment [1], `O=C(CCCCCC(=O)Nc1nnc(-c2ccc(Br)cc2)s1)NO` yielded an IC50 of 1.285 µM. This IC50 and that of the molecule before are within 1.5-fold of each other.

In experiment [1], `O=C(CCCCCC(=O)Nc1nnc(-c2ccc3ccccc3c2)s1)NO` gave an IC50 greater than 5 µM. With `O=C(CCCCCC(=O)Nc1nnc(-c2ccc(C(F)(F)F)cc2)s1)NO`, the IC50 in experiment [1] is 1.154 µM.

For `CS(=O)(=O)c1ccc(-c2nnc(NC(=O)CCCCCC(=O)NO)s2)cc1`, the IC50 in experiment [1] worked out at 0.721 µM. Compared with the last molecule, the IC50 is about 1.6-fold lower. With `O=C(CCCCCCC(=O)Nc1nnc(-c2cccc(Br)c2)s1)NO`, in experiment [1], the IC50 was 1.215 µM. Compared with the last molecule, the IC50 is about 1.7-fold higher. Turning to `O=C(CCCCCC(=O)Nc1nnc(-c2cccs2)s1)NO`, the IC50 in experiment [2] is greater than 60 µM; in experiment [3], greater than 60 µM; in experiment [4] it was 15.2 µM; in experiment [1] it was 0.411 µM. `O=C(CCCCCCC(=O)Nc1nnc(-c2ccncc2)s1)NO`: the IC50 in experiment [2] was determined as 4.15 µM; in experiment [3] it was 7.75 µM; in experiment [4] it was 4.69 µM; in experiment [1], 0.286 µM.

For `O=C(CCCCCCC(=O)Nc1nnc(-c2ccc(I)cc2)s1)NO`, the IC50 in experiment [1] is greater than 5 µM. The same measure, in the same setting: as for `O=C(CCCCCCC(=O)Nc1nnc(-c2cccc3ccccc23)s1)NO`, the figure is greater than 5 µM; as for `O=C(CCCCCC(=O)Nc1nnc(-c2ccc(-c3ccccc3)cc2)s1)NO`, greater than 5 µM; as for `Cc1ccc(-c2nnc(NC(=O)CCCCCC(=O)NO)s2)cc1`, 0.422 µM. `COc1ccc(-c2nnc(NC(=O)CCCCCC(=O)NO)s2)cc1`: the IC50 in experiment [1] stood at 0.437 µM. The same measure, in the same setting: for `O=C(CCCCCC(=O)Nc1nnc(-c2ccc(Cl)cc2)s1)NO` the value was 0.988 µM. On to `O=C(CCCCCC(=O)Nc1nnc(-c2ccco2)s1)NO`, for which, in experiment [1], the IC50 was determined as 0.434 µM. Consider `O=C(CCCCCCC(=O)Nc1nnc(-c2ccc(-c3ccccc3)cc2)s1)NO`, for which, in experiment [1], the IC50 is greater than 5 µM. The same measure, in the same setting: as for `O=C(CCCCCCC(=O)Nc1nnc(-c2ccccc2Br)s1)NO`, the figure is 0.526 µM; as for `O=C(CCCCCCC(=O)Nc1nnc(-c2ccc(N3CCOCC3)cc2)s1)NO`, greater than 5 µM; as for `O=C(CCCCCC(=O)Nc1nnc(-c2ccc(F)cc2)s1)NO`, 0.741 µM. `CS(=O)(=O)c1ccc(-c2nnc(NC(=O)CCCCCCC(=O)NO)s2)cc1` came in with an IC50 in experiment [1] of 0.598 µM. As to `O=C(CCCCCC(=O)Nc1nnc(-c2ccncc2)s1)NO`, the IC50 in experiment [2] is greater than 60 µM; in experiment [3] it was greater than 60 µM; in experiment [4] it was 40.1 µM; in experiment [1] it was 0.411 µM. Turning to `O=C(CCCCCCC(=O)Nc1nnc(-c2cccs2)s1)NO`, the IC50 in experiment [2] was 1.56 µM; in experiment [3] it was 3.6 µM; in experiment [4], 1.21 µM; in experiment [1], 0.31 µM. In experiment [1], `O=C(CCCCCC(=O)Nc1nnc(-c2ccccc2Cl)s1)NO` registered an IC50 of 0.507 µM. This counts as sub-micromolar. Consider `O=C(CCCCCCC(=O)Nc1nnc(-c2ccc3ccccc3c2)s1)NO`, for which the IC50 in experiment [1] is greater than 5 µM. For the molecule `O=C(CCCCCCC(=O)Nc1ccccc1)NO` [VORINOSTAT], it took 2.29 µM to reach half-maximal inhibition in experiment [4] (IC50). That is a single-digit micromolar value. Turning to `O=C(CCCCCC(=O)Nc1nnc(-c2cccnc2)s1)NO`, the IC50 in experiment [2] is greater than 60 µM; in experiment [3] it was 54.4 µM; in experiment [4] it was 11.7 µM; in experiment [1] it was 0.325 µM. In experiment [1], `COc1ccc(-c2nnc(NC(=O)CCCCCC(=O)NO)s2)cc1OC` showed an IC50 of 0.487 µM. In other words, the sub-micromolar range. Take `O=C(CCCCCC(=O)Nc1nnc(-c2cccc3ccccc23)s1)NO`: the IC50 in experiment [1] was 3.186 µM. The molecule `O=C(CCCCCCC(=O)Nc1nnc(-c2ccco2)s1)NO` came in with an IC50 in experiment [1] of 0.436 µM. This IC50 lies about 7.3-fold lower than the previous one. In experiment [1], `O=C(CCCCCC(=O)Nc1nnc(-c2ccc(N3CCOCC3)cc2)s1)NO` showed an IC50 greater than 5 µM.

Molecule `O=C(CCCCCC(=O)Nc1nnc(-c2cccc(Cl)c2)s1)NO` returned an IC50 in experiment [1] of 0.847 µM.

In turn, `CN(C)c1ccc(-c2nnc(NC(=O)CCCCCC(=O)NO)s2)cc1` came in with a 50% inhibitory concentration (IC50) in experiment [1] greater than 5 µM.
